The subject of experiment [1] is fresh human peripheral blood neutrophils. Kind of experiment: NETosis on Cl-amidine eluting templates in vitro (DAPI/SYTOX Green BG ratio). The experiment is classed as cell-based. The procedure:
10 mm diameter punches of the templates (n=4) were placed in a 48-well culture plate and disinfected by UV irradiation. Isolated peripheral neutrophils from whole blood were suspended in sterile HBSS and used to seed templates with 600,000 cells in 250 μL of HBSS and cultured for 3 and 6 hours under standard conditions. Cellularized templates were then fixed in 10% buffered formalin and fluorescence quantification of NETs was carried out. Templates with 100 nM SYTOX Green for extracellular DNA followed by DAPI fixed cell nuclei stain at stock concentration (FIGS. 9A, 9B, 10A, 10B, and 11A). The ratio of DAPI (blue) to SYTOX green (BG ratio) pixels per image using MATLAB 2012a was quantified to determine degree of NETosis (FIGS. 12A and 12B).
Infrared scanning and quantification of citrullinated histone H3 (CitH3) was carried out as follows. Templates were incubated with rabbit anti-human histone H3 (citrulline R2+R8+R17) antibody (ABCAM) followed by IRDye 800CW donkey anti-rabbit secondary antibody. The templates were scanned on the 800-nm channel of the Odyssey CLx Infrared Imaging System (LICOR) to generate full-thickness template fluorescence. Template-bound CitH3 was quantified with standard curve of CitH3 vacuum blotted onto a PVDF membrane. Statistical analysis was carried out as follows. […] Then the plot of relative fluorescence against mass of CitH3 was fit with a linear regression. […]

Experiment [2] deals with T1, PAD4 (Homo sapiens, UniProt Q9UM07).
T1 construct: purchased
T1 sequence (Q9UM07 whole entry, species assumed): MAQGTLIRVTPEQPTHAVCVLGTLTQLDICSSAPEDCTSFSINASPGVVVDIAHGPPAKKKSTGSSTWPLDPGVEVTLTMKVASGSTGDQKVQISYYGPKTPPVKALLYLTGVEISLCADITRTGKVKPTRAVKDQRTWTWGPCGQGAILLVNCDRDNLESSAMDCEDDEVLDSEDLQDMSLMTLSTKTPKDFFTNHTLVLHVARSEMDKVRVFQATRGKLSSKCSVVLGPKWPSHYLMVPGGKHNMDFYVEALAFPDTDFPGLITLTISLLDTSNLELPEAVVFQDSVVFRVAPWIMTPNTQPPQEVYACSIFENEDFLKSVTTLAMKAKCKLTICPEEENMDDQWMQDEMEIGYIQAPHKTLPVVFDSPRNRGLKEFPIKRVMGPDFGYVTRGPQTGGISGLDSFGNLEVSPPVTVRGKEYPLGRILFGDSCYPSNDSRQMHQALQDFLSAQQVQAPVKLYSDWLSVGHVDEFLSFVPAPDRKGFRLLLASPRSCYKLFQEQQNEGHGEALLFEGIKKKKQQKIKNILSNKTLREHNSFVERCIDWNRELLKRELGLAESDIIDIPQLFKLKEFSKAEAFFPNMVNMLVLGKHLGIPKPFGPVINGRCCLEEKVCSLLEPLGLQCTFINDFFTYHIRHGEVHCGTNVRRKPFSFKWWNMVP
The experiment is described as follows: PAD4 Inhibitor Screening Assay: Cl-amidine activity after exposure to electrospinning solvent HFP. The format is biochemical. The text has this: The log transform of molarity against average fluorescent intensity was plotted for each concentration (FIG. 6).
As the concentration of drug increases, the relative fluorescence decreases, signifying an increase in the inhibition of PAD4. […] However, the drug was still active producing a sigmoidal curve similar to that of the HBSS samples.
In addition to determining the activity of Cl—Am, the samples exposed to HFP were used to create a standard curve for quantifying unknown Cl—Am concentrations. The four-parameter logistic regression of the HFP exposed samples (Equation 1, x=logarithmic transform of Cl—Am concentration and y=relative fluorescence) has an R2-value of 0.996, and there is no evidence of an inadequate model from the lack of fit test (p=0.28).
Lower fluorescence indicated greater inhibition of PAD4. No evidence of lack of fit (p=0.28) was found for the four-parameter regression of HFP exposed samples. […] This provided a standard curve for quantifying unknown Cl-amidine from elution studies.

For `N=C(CCl)NCCCC(NC(=O)c1ccccc1)C(N)=O` [Cl-amidine, N-α-benzoyl-N5-(2-chloro-1-iminoethyl)-L-ornithine amide], the “effect of eluted Cl-amidine on NETosis” value in experiment [1] (on large diameter templates, 3 hours) is reported as “opposite trend”; in experiment [1] (on small diameter templates, 3 hours (p<0.05)) it was “significantly attenuated NETosis”. In addition, in experiment [2] (after exposure to HFP), the “lowest concentration inhibiting PAD4 activity” value is 1.2 µM. Also, in experiment [2] (at two concentrations, 5.9 and 29.5 μM (p<0.0001)), the “activity against PAD4 after exposure to HFP versus HBSS samples” value is on record as “significantly reduced its activity against PAD4”. In addition, in experiment [2] (sigmoidal curve similar to HBSS samples), the “efficacy after exposure to solvent HFP” value is “retained efficacy after exposure to HFP”.

Values taken from US11202850B2, “Compositions and methods for inhibiting inflammation” (THE UNIVERSITY OF MEMPHIS RESEARCH FOUNDATION, priority 2018, dated 2021).
